This note sets out measurements from patent US20210323977A1, “PYRROLIDINYL AMIDE COMPOUNDS FOR THE TREATMENT OF AUTOIMMUNE DISEASE” (Hoffmann-La Roche Inc., priority 2018, published 2021).

Structures are written as SMILES. pIC50: −log10 of the molar value.

As usually defined, the pIC50 is the IC50 on a negative log10 scale, so that one unit is a factor of ten.

For this assay, the target named is T1, human TLR9 (Homo sapiens, UniProt Q9NR96).
T1 sequence (Q9NR96 26-1032): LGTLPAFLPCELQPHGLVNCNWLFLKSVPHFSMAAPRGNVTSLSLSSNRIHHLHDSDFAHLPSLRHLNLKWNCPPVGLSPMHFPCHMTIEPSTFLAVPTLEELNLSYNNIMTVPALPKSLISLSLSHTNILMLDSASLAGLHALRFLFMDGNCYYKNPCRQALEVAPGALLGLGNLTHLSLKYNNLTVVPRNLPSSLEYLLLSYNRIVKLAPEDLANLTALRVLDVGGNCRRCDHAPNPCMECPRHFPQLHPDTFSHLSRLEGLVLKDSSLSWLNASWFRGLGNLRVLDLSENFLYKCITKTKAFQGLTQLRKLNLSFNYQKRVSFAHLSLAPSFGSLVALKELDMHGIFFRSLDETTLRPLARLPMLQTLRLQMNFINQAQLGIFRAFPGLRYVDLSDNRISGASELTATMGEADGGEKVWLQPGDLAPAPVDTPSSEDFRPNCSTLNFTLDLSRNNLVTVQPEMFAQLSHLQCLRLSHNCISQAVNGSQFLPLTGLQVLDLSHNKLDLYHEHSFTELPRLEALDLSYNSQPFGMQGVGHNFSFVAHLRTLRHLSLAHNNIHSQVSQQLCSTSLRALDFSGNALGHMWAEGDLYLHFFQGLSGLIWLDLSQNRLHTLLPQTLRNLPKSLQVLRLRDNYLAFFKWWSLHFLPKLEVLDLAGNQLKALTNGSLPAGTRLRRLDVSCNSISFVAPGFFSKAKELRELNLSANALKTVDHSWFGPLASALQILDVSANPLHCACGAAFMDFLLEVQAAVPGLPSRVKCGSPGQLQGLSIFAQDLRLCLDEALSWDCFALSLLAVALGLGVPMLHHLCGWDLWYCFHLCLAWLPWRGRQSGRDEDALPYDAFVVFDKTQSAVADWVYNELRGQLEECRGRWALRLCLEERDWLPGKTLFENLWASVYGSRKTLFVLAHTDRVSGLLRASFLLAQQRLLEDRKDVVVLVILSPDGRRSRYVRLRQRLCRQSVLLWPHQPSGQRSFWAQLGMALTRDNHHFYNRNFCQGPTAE
The assay is described as follows: HEK293-Blue-hTLR-9 cells assay. The assay is classed as cell-based. Conditions: HEK293-Blue-hTLR9 cells, SEAP reporter, ODN2006 stimulation, 20 hrs. The source says: HEK293-Blue-hTLR-9 Cells Assay:
A stable HEK293-Blue-hTLR-9 cell line was purchased from InvivoGen (Cat. #: hkb-htlh9, San Diego, Calif., USA). These cells were originally designed for studying the stimulation of human TLR9 by monitoring the activation of NF-κB. A SEAP (secreted embryonic alkaline phosphatase) reporter gene was placed under the control of the IFN-β minimal promoter fused to five NF-κB and AP-1-binding sites. The SEAP was induced by activating NF-κB and AP-1 via stimulating HEK-Blue hTLR9 cells with TLR9 ligands. Therefore the reporter expression was declined by TLR9 antagonist under the stimulation of a ligand, such as ODN2006 (Cat. #: tlrl-2006-1, Invivogen, San Diego, Calif., USA), for incubation of 20 hrs. The cell culture supernatant SEAP reporter activity was determined using QUANTI-Blue™ kit (Cat. #: rep-qb1, Invivogen, San Diego, Calif., USA) at a wavelength of 640 nm, a detection medium that turns purple or blue in the presence of alkaline phosphatase.
HEK293-Blue-hTLR9 cells were incubated at a density of 250,000-450,000 cells/mL in a volume of 170 μL in a 96-well plate in Dulbecco's Modified Eagle's medium (DMEM) containing 4.5 g/L glucose, 50 U/mL penicillin, […], […], 2 mM L-glutamine, 10% (v/v) heat-inactivated fetal bovine serum with addition of 20 sL test compound in a serial dilution in the presence of final DMSO at 1% and 10 sL of 20 uM ODN2006 in above DMEM, perform incubation under 37° C. in a CO2 incubator for 20 hrs. Then 20 sL of the supernatant from each well was incubated with 180 μL Quanti-blue substrate solution at 37° C. for 2 hrs and the absorbance was read at 620-655 nm using a spectrophotometer. The signalling pathway that TLR9 activation leads to downstream NF-x3B activation has been widely accepted, and therefore similar reporter assay was modified for evaluating TLR9 antagonist.
In turn, `N#Cc1ccc(N2CC(C(=O)NC[C@H]3CNCCO3)C3(CC3)C2)c2nccnc12` (single isomer, unassigned) [Example 70A] showed a pIC50 of 5.16. `C[C@@H]1CN(c2ccc(C#N)c3ncccc23)C[C@H]1C(=O)NC1CCCNCC1` (single isomer, unassigned) [Example 52B, Trans-N-(azepan-4-yl)-1-(8-cyano-5-quinolyl)-4-methyl-pyrrolidine-3-carboxamide] had a pIC50 of 4.94. For `C[C@@H]1CN(c2ccc(C(F)(F)F)c3nccnc23)C[C@H]1C(=O)NC1CCN(C)CC1` [Example 25, (3S,4S)-4-Methyl-N-(1-methyl-4-piperidyl)-1-[8-(trifluoromethyl)quinoxalin-5-yl]pyrrolidine-3-carboxamide], the pIC50 is 4.86. Consider `O=C(NC1CC2CNCC2C1)C1CN(c2ccc(C(F)(F)F)c3nccnc23)CC12CC2` (stereo not shown) [Example 21, N-(1,2,3,3a,4,5,6,6a-octahydrocyclopenta[c]pyrrol-5-yl)-5-[8-(trifluoromethyl)quinoxalin-5-yl]-5-azaspiro[2.4]heptane-7-carboxamide], for which the pIC50 is 4.85. As to `O=C(NC1CC2CNCC(C2)C1)C1CN(c2ccc(C(F)(F)F)c3nccnc23)CC12CC2` (stereo not shown) [Example 15, N-(3-azabicyclo[3.3.1]nonan-7-yl)-5-[8-(trifluoromethyl)quinoxalin-5-yl]-5-azaspiro[2.4]heptane-7-carboxamide], the pIC50 is 5.14.

Consider `N#Cc1ccc(N2CC(C(=O)NC[C@H]3CNCCO3)C3(CC3)C2)c2nccnc12` (single isomer, unassigned) [Example 70B], for which the pIC50 is 5.55. Turning to `C[C@@H]1CN(c2ccc(C#N)c3ncccc23)C[C@H]1C(=O)NC1CCN(C)CC1` (relative stereo) [Example 28], the negative logarithm of the IC50 (pIC50) was 5.19. Compound `C[C@@H]1CN(c2ccc(C#N)c3ncccc23)C[C@H]1C(=O)N[C@H]1CNC[C@H]1F` [Example 56, Trans-1-(8-cyano-5-quinolyl)-N-[(3S,4R)-4-fluoropyrrolidin-3-yl]-4-methyl-pyrrolidine-3-carboxamide] showed a pIC50 of 4.73. This pIC50 lies 0.46 log units lower than the previous one. Turning to `N#Cc1ccc(N2CC(C(=O)NC[C@@H]3CNCCO3)C3(CC3)C2)c2nccnc12` (single isomer, unassigned) [Example 71A], the pIC50 is 5.42. Consider `Cc1ccc(N2C[C@H](C(=O)NC3CCN(C)CC3)[C@@H](C)C2)c2nccnc12` [Example 33, (3R,4R)-4-Methyl-N-(1-methyl-4-piperidyl)-1-(8-methylquinoxalin-5-yl)pyrrolidine-3-carboxamide], for which the pIC50 is 4.52. In the case of `O=C(NC1CC2CCC(C1)N2)C1CN(c2ccc(C(F)(F)F)c3nccnc23)CC12CC2` (stereo not shown) [Example 23, N-(8-azabicyclo[3.2.1]octan-3-yl)-5-[8-(trifluoromethyl)quinoxalin-5-yl]-5-azaspiro[2.4]heptane-7-carboxamide], the negative-log IC50 (pIC50) is 4.98. Regarding `NC1CC(CNC(=O)C2CN(c3ccc(C(F)(F)F)c4nccnc34)CC23CC3)C1` (stereo not shown) [Example 31, N-[(3-aminocyclobutyl)methyl]-5-[8-(trifluoromethyl)quinoxalin-5-yl]-5-azaspiro[2.4]heptane-7-carboxamide], the negative-log IC50 (pIC50) was 5.03. This pIC50 and that of the compound before are within 0.2 log units of each other. In the case of `CN1CCC(NC(=O)C2CN(c3ccc(C#N)c4nccnc34)CC23CC3)CC1` (single isomer, unassigned) [Example 7B, 5-(8-Cyanoquinoxalin-5-yl)-N-(1-methyl-4-piperidyl)-5-azaspiro[2.4]heptane-7-carboxamide] it was 5.48; in that of `N#Cc1ccc(N2CC(C(=O)NC3CCCNCC3)C(C(F)(F)F)C2)c2cccnc12` (single isomer, unassigned) [Example 30B, N-(azepan-4-yl)-1-(8-cyano-5-quinolyl)-4-(trifluoromethyl)pyrrolidine-3-carboxamide], 4.79. `CN1CCC(NC(=O)C2CN(c3ccc(C#N)c4nccnc34)CC23CC3)CC1` (single isomer, unassigned) [Example 7A, 5-(8-Cyanoquinoxalin-5-yl)-N-(1-methyl-4-piperidyl)-5-azaspiro[2.4]heptane-7-carboxamide] gave a pIC50 of 5.49. Next, `CN1CCC(NC(=O)[C@@H]2CN(c3ccc(C#N)c4ncccc34)C[C@H]2C(F)F)CC1` (relative stereo) [Example 40, Trans-1-(8-cyano-5-quinolyl)-4-(difluoromethyl)-N-(1-methyl-4-piperidyl)pyrrolidine-3-carboxamide]: 5.16. Compound `CN1CCC(NC(=O)[C@H]2CN(c3ccc(C#N)c4nccnc34)C[C@@H]2C(F)(F)F)CC1` [Example 1, (3R,4R)-1-(8-cyanoquinoxalin-5-yl)-N-(1-methyl-4-piperidyl)-4-(trifluoromethyl) pyrrolidine-3-carboxamide] gave a pIC50 of 5.28. In the case of `O=C(NC1C2CCC1CNC2)C1CN(c2ccc(C(F)(F)F)c3nccnc23)CC12CC2` (stereo not shown) [Example 12, N-(3-azabicyclo[3.2.1]octan-8-yl)-5-[8-(trifluoromethyl)quinoxalin-5-yl]-5-azaspiro[2.4]heptane-7-carboxamide], the pIC50 is 6.00. Consider `CN1CCC(NC(=O)[C@H]2CN(c3ccc(C(F)(F)F)c4nccnc34)C[C@@H]2C(F)(F)F)CC1` [Example 2, (3R,4R)—N-(1-methyl-4-piperidyl)-4-(trifluoromethyl)-1-[8-(trifluoromethyl)quinoxalin-5-yl]pyrrolidine-3-carboxamide], for which the negative-log IC50 (pIC50) is 5.26. In turn, `O=C(NC1CC2CCCC(C1)N2)C1CN(c2ccc(C(F)(F)F)c3nccnc23)CC12CC2` (stereo not shown) [Example 10, N-(9-azabicyclo[3.3.1]nonan-3-yl)-5-[8-(trifluoromethyl)quinoxalin-5-yl]-5-azaspiro[2.4]heptane-7-carboxamide] had a pIC50 of 5.02. `N[C@H]1CC[C@@H](NC(=O)C2CN(c3ccc(C(F)(F)F)c4nccnc34)CC23CC3)CC1` (stereo partly shown) [Example 39, N-(4-Aminocyclohexyl)-5-[8-(trifluoromethyl)quinoxalin-5-yl]-5-azaspiro[2.4]heptane-7-carboxamide] gave a pIC50 of 4.68.

`N#Cc1ccc(N2CC(C(=O)NCC3CNCCO3)C3(CC3)C2)c2nccnc12` (stereo not shown) [Example 13, 5-(8-Cyanoquinoxalin-5-yl)-N-(morpholin-2-ylmethyl)-5-azaspiro[2.4]heptane-7-carboxamide]: the pIC50 was 5.68. In turn, `N[C@H]1CC[C@H](NC(=O)C2CN(c3ccc(C(F)(F)F)c4nccnc34)CC23CC3)CC1` (stereo partly shown) [Example 24, N-(4-aminocyclohexyl)-5-[8-(trifluoromethyl)quinoxalin-5-yl]-5-azaspiro[2.4]heptane-7-carboxamide] had a pIC50 of 4.56. The compound `CN1CCC(NC(=O)C2CN(c3ccc(C#N)c4ncccc34)CC23CC3)CC1` (single isomer, unassigned) [Example 41A, 5-(8-Cyano-5-quinolyl)-N-(1-methyl-4-piperidyl)-5-azaspiro[2.4]heptane-7-carboxamide] gave a pIC50 of 5.35. Against the preceding compound, the pIC50 is 0.79 log units higher. `CN1CCC(NC(=O)C2CN(c3ccc(C(F)(F)F)c4nccnc34)CC23CC3)CC1` (stereo not shown) [Example 11, N-(1-methyl-4-piperidyl)-5-[8-(trifluoromethyl)quinoxalin-5-yl]-5-azaspiro[2.4]heptane-7-carboxamide]: the pIC50 is 6.00.
